The values below come from patent publication US20220340976A1, “RAPID PREDICTION OF DRUG RESPONSIVENESS” (THE BROAD INSTITUTE, INC., priority 2019, published 2022).

Assay [1] concerns pools of well-characterized cancer cell lines. The experiment in a line: MIX-Seq: scRNA-seq transcriptional response profiling of drug-treated cell line pools. The format is cell-based, human. The conditions noted are these: for shared viability-related signature (cell-cycle genes): across compounds, 24 hours post-treatment. Here is the method: Cell line pools were made in sets of 25 cell lines. These 25 cell line pools were chosen based on doubling time and were grown in RPMI in the absence of phenol red and with 10% FBS. Cell lines were then washed with 10 mLs of PBS, and trypsinized with 1 mL trypsin which was then removed. Ten mLs of RPMI media were added to the cells post trypsinization and resuspended. Cells were then counted by a Nexcelom cellometer using 10 uL of cell suspension and 10 ul of Trypan blue. Equal numbers of cells per cell line were mixed together and spun down at 1,250 RPM for 5 minutes. Media was aspirated and the cells were resuspended in Sigma Cell Freezing media and frozen in 1 mL aliquots. This process was repeated for all of the 25 cell line pools. For MIX-Seq experiments involving larger pools, multiple 25 cell line pools were thawed in RPMI with 10% FBS, spun down and resuspended in 5 mLs of RPMI media. Cells were then counted and equal numbers were combined together on the day of plating to form larger pools of up to ˜100 cell lines.
For drug treatment experiments, cell line pools were cultured in RPMI containing 10% fetal bovine serum, in the absence of phenol red and penicillin/streptomycin. Cell line pools were validated as Mycoplasma free prior to initiating the experiment. Cell line pools were plated at 200,000 cells per well in 6 well plates containing 2 mL of RPMI culture media described above. […] Cell pools were plated ˜16-20 hours prior to drug treatment. Cells were treated with the described drugs or vehicle (DMSO) with a 0.2% final media DMSO concentration.
Generally cells were harvested after drug treatment using standard cell culture methods. Briefly, after drug treatment cells that were in suspension (presumably containing dead cells from drug treatment) were collected and reserved for addition to the adherent cell fraction. Adherent cells were washed once with 1×PBS, trypsinized in 1 mL trypsin, incubated for 3-7 minutes at 37 C, and then trypsin inactivated with 1 mL growth media. For Cell Hashing, cells were treated with TrypLE Express (ThermoFisher) instead of trypsin to reduce the amount of cell surface proteins digested that may affect the binding of Cell Hashing antibodies.
After trypsinization, adherent and suspension cells were combined for each treatment, pelleted, and resuspended in Cell Capture Buffer (lx PBS with 0.04% BSA). Cells were counted (including trypan blue non-viable cells) and resuspended at a concentration of 1,000 cells per microliter for standard loading on the Chromium Controller (10× Genomics), or at 1,500 cells per microliter for “super loaded” samples. Up to 40,000 cells were loaded per 10× channel for “super loaded” samples, with expected recovery of up to 20,000 cells per channel. Cell suspensions were captured on a 10× Chromium controller using Single Cell 3′ reagent chemistries (either version 2 or and version 3 reagents) FIG. 26.
Sequencing data were processed using 10× Cell Ranger software, run using the Cumulus cloud-based analysis framework (Li et al. 2019). Initial experiments were done with 10× Single Cell 3′ v2 chemistry, and were processed using version 2 of the Cell Ranger software. In later experiments v3 chemistry and the corresponding version 3 of Cell Ranger were used. Reads were aligned to the hg19 reference genome.
To estimate the average transcriptional response of each cell line to a perturbation, the data were first ‘sum-collapsed’—summing read counts across cells for each cell line and treatment condition—to produce a bulk RNA-seq style read counts profile for each sample (Crowell et al. 2019; Lun & Marioni 2017). […]

For assay [2], the system named is pools of cancer cell lines. In words: Cell cycle phase analysis inferred from single-cell transcriptional profiles (MIX-Seq). The conditions noted are these: for change in proportion of cells in G2/M phase / change in proportion of cells in S phase: 24 hours post-treatment, average weighted by drug sensitivity. The format is cell-based, human. Here is the method:
Cell cycle phase classification was performed using the Seurat function CellCycleScoring, using the S- and G2M-phase gene lists reported in Tirosh et al. 2016. The change in proportion of cells in each phase between treatment and control conditions for each cell line, along with associated confidence intervals, were estimated using the prop.test R function. For FIG. 4C, aggregate scores were computed representing how each compound altered the cell cycle composition by computing weighted averages across cell lines of the change in proportion of cells in each phase, where the weights were determined by the cell lines' measured drug sensitivity (1 minus AUC, bounded between 0 and 1).
For example, characterizing the cell cycle effects of a perturbation yields important information about its MoA. Such measurements have heretofore typically been made using a FACS-based assay, which must be performed on each sample independently and cannot be used to relate cell cycle effects post hoc to other phenotypes without advanced planning. Using MIX-Seq, such measurements can be made in parallel across a pool of cell lines, inferring the cell cycle phase of each cell from its transcriptional profile (Tirosh et al. 2016).
Next, the effects of each compound on the cell cycle were systematically assessed (see Example 1 above). […] Two notable exceptions were the DNA-damaging agent gemcitabine and the CHEK1/2 inhibitor prexasertib.

Assay [3] relates to pools of cancer cell lines. In words: Single-cell heterogeneity analysis of drug responses (clustering of scRNA-seq profiles). The format is cell-based, human. The conditions noted are these: of the 24 cell lines in the pool, 24 hours after treatment. From the text: Specifically, the edgeR quasi-likelihood approach was used (Lun et al. 2016), following the pipeline in Soneson et al. 2018, with the cell detection rate (the fraction of genes with non-zero reads detected) included as a covariate.
To identify subpopulations of bortezomib treated cells (FIGS. 4D-4F), Seurat's default methods were used to normalize the data, detect variable genes, and compute PCs (using 5000 most variable genes, and 50 PCs). Seurat's default clustering methods were then used to cluster cells for each cell line (using the 20 nearest neighbors, and a clustering resolution parameter of 0.25).
To identify sub-populations of cells from a given cell line in a consistent fashion across baseline and treatment conditions (for analysis and presentation in FIG. 19), the following procedure was employed. After restricting to cells from the target cell line, the scTransform method (Hafemeiester et al. 2019) was used to normalize the data, identify 5,000 variable genes, and regress out experimental condition as a covariate to align clusters across conditions. Seurat's default clustering methods (using the top 10 PCs, 20 nearest neighbors, and a clustering resolution parameter of 0.25) were then used to identify clusters jointly across treated and control cells.

The test system of the next assay is cancer cell lines. The conditions noted are these: GDSC and PRISM drug sensitivity data; cited from earlier work.
Setting [4] is: 24 hours post-treatment (FIGS. 9B, 9C).

Where “and” joins values, the source holds several entries; their conditions need not be identical. Equal values may be shown once. Entries after “also recorded” stand apart in the source; their conditions may differ.

Take `COc1cccc(OCCCN)c1-c1cc(Nc2cnc(C#N)cn2)n[nH]1` [prexasertib]: the “shared viability-related signature (cell-cycle genes)” value (“shared viability-related signature” below) in assay [1] was “shared signature was also apparent”. Also, in assay [2], the “change in proportion of cells in G2/M phase” value is on record as “slightly increased the fraction of G2/M cells” and the “change in proportion of cells in S phase” value is given as “decreased the proportion of S-phase cells”.

`COc1ccc(C2=NC(c3ccc(Cl)cc3)C(c3ccc(Cl)cc3)N2C(=O)N2CCNC(=O)C2)c(OC(C)C)c1` (centres unmarked) [nutlin]: the “average drug-induced changes in gene expression for each cell line” value in assay [1] (TP53 WT cell lines (7) in a pool of 24 cell lines) is listed as “robust response; also recorded: strong gene expression changes”. For the same compound, in assay [1] (among TP53 WT cell lines), the “gene set enrichment analysis of average transcriptional response, down-regulated” value was “down-regulation of cell cycle processes” and the “gene set enrichment analysis of average transcriptional response, up-regulated” value is listed as “clear up-regulation of genes in the TP53 downstream pathway”. The “average drug-induced changes in gene expression for each cell line” value in assay [1] (cell lines harboring TP53 mutations (n=17) in a pool of 24 cell lines) is given as “only minimal changes; also recorded: weak gene expression changes”. For the same compound, the “change in proportion of cells in G0/G1” value in assay [2] (pool of 24 cell lines, TP53 WT vs TP53 mutant) was “pronounced G0/G1-arrest phenotype selectively among the TP53 WT cell lines; also recorded: elicits G1-arrest selectively among the TP53 WT cell lines”.

As to `Nc1ccn([C@@H]2O[C@H](CO)[C@@H](O)C2(F)F)c(=O)n1` [gemcitabine], in assay [1] (setting [4]), the “gene sets enriched in across-cell-line average transcriptional response” value (“gene sets enriched” below) was “altered expression of apoptosis-related genes”. The “shared viability-related signature” value in assay [1] is “shared signature was also apparent”. Besides, in assay [2], the “change in proportion of cells in G2/M phase” value is given as “decreased the proportion of cells in G2/M” and the “change in proportion of cells in S phase” value is “increase in S-phase cells”.

As to `CC(C)C[C@H](NC(=O)[C@H](Cc1ccccc1)NC(=O)c1cnccn1)B(O)O` [bortezomib], in assay [1] (6 hours post-treatment (FIG. 9A)), the “gene sets enriched” value is “strong up-regulation of protein folding and heat-shock response pathways”. The “shared viability-related signature” value in assay [1] was “shared signature was also apparent”. Also, in assay [3], the “number of cell lines showing a bimodal response” value was 10 and 9.

Turning to `Cc1sc2c(c1C)C(c1ccc(Cl)cc1)=N[C@@H](CC(=O)OC(C)(C)C)c1nnc(C)n1-2` [JQ-1], the “shared viability-related signature” value in assay [1] was “shared signature was also apparent”.

`CO[C@H]1C[C@@H]2CC[C@@H](C)[C@@](O)(O2)C(=O)C(=O)N2CCCC[C@H]2C(=O)O[C@H]([C@H](C)C[C@@H]2CC[C@@H](OCCO)[C@H](OC)C2)CC(=O)[C@H](C)/C=C(\C)[C@@H](O)[C@@H](OC)C(=O)[C@H](C)C[C@H](C)/C=C/C=C/C=C/1C` [everolimus]: the “gene sets enriched” value in assay [1] (setting [4]) is “mTOR signaling was the top down-regulated gene set”.

For the compound `CC(C)(C)c1nc(-c2cccc(NS(=O)(=O)c3c(F)cccc3F)c2F)c(-c2ccnc(N)n2)s1` [dabrafenib], the “variability of transcriptional responses among sensitive cell lines” value in assay [1] (BRAF-mutant melanoma cell lines, 24 hour post-treatment) is listed as “substantial variation”.

For the compound `CC1(C)CCC(c2ccc(Cl)cc2)=C(CN2CCN(c3ccc(C(=O)NS(=O)(=O)c4ccc(N[C@H](CCN5CCOCC5)CSc5ccccc5)c(S(=O)(=O)C(F)(F)F)c4)cc3)CC2)C1` [navitoclax], the “robust transcriptional response signature” value in assay [1] (6 and/or 24 hours post-treatment) is given as “did not produce strong and/or selective transcriptional responses; also recorded: did not produce robust transcriptional response signatures; also recorded: a robust transcriptional response to navitoclax was not observed”. Further, the “long-term viability response across cell lines” value in the assay with cancer cell lines is reported as “strong selective viability responses”.
